Source: patent US12404283B2, “c-MYC mRNA translation modulators and uses thereof in the treatment of cancer” (Anima Biotech Inc., priority 2022, dated 2025)
Counter-ions that a name gives are not always drawn.

Test system: c-Myc
Test: c-Myc immunofluorescence assay
Type: cell-based, human
Settings: A549 cells, 24 hours treatment, anti-c-Myc immunofluorescence
In short: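 High-content imaging (20×) of PFA-fixed A549 cells immunostained for c-Myc with DAPI nuclei, after 24 h compound treatment at increasing concentrations. Per-cell c-Myc signal in identified cell regions was plotted against dose and fitted by logistic regression to give EC50.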

Row | SMILES | Myc Efficacy (−LogEC50)
1 | CCN(CC)CCCNC(=O)c1ccc2c(c1)sc1nc(-c3ccccc3)cn12 [compound 107, N-(3-(diethylamino)propyl)-2-phenylbenzo[d]imidazo [2,1-b]thiazole-7-carboxamide] | ++ (++ ≥5 and <6)
2 | CCCNC(=O)c1ccc2c(c1)sc1nc(-c3ccc(C)cc3)cn12 [compound 108, N-propyl-2-(p-tolyl)benzo[d]imidazo[2,1-b]thiazole-7-carboxamide] | ++ (++ ≥5 and <6)
3 | CCNC(=O)c1ccc2c(c1)sc1nc(-c3ccc(C)cc3)cn12 [compound 109, N-ethyl-2-(p-tolyl)benzo[d]imidazo[2,1-b]thiazole-7-carboxamide] | ++ (++ ≥5 and <6)
4 | CC(=O)NCCCNC(=O)c1ccc2c(c1)sc1nc(-c3ccc(C)cc3)cn12 [compound 110, N-(3-acetamidopropyl)-2-(p-tolyl)benzo[d]imidazo[2,1-b]thiazole-7-carboxamide] | − (− ≤3)
5 | CCN(CC)CCCNC(=O)c1ccc2c(c1)sc1nc(-c3ccc(Cl)cc3)cn12 [compound 111, 2-(4-chlorophenyl)-N-(3-(diethylamino)propyl)benzo [d]imidazo[2,1-b]thiazole-7-carboxamide] | ++ (++ ≥5 and <6)
6 | Cc1ccc(-c2cn3c(n2)sc2cc(C(=O)NC[C@H]4CCNC4)ccc23)cc1 [compound 114, (S)-N-(pyrrolidin-3-ylmethyl)-2-(p-tolyl)benzo[d]imidazo[2,1-b]thiazole-7-carboxamide formate] | ++ (++ ≥5 and <6)
7 | Cc1ccc(-c2cn3c(n2)sc2cc(C(=O)NCCCN)ccc23)cc1 [compound 115, N-(3-aminopropyl)-2-(p-tolyl)benzo[d]imidazo[2,1-b]thiazole-7-carboxamide] | + (+ >3 and <5)
8 | Cc1ccc(-c2cn3c(n2)sc2cc(C(=O)NC[C@@H]4CCNC4)ccc23)cc1 [compound 116, (R)-N-(pyrrolidin-3-ylmethyl)-2-(p-tolyl)benzo[d]imidazo [2,1-b]thiazole-7-carboxamide formate] | ++ (++ ≥5 and <6)
9 | Cc1ccc(-c2cn3c(n2)sc2cc(C(=O)NCC4CNC4)ccc23)cc1 [compound 117, N-(azetidin-3-ylmethyl)-2-(p-tolyl)benzo[d]imidazo [2,1-b]thiazole-7-carboxamide] | + (+ >3 and <5)
10 | CCN(CC)CCCNC(=O)c1ccc2c(c1)sc1nc(-c3cccc(C)c3)cn12 [compound 118, N-(3-(diethylamino)propyl)-2-(m-tolyl)benzo[d]imidazo [2,1-b]thiazole-7-carboxamide] | +++ (+++ ≥6)
11 | CCN1CCC[C@H]1CNC(=O)c1ccc2c(c1)sc1nc(-c3cccc(OC)c3)cn12 [compound 119, (S)-N-((1-ethylpyrrolidin-2-yl)methyl)-2-(3-methoxyphenyl)benzo[d] imidazo[2,1-b]thiazole-7-carboxamide] | ++ (++ ≥5 and <6)
12 | Cc1ccc(-c2cn3c(n2)sc2cc(C(=O)NCCN)ccc23)cc1 [compound 122, N-(2-aminoethyl)-2-(p-tolyl)benzo[d]imidazo[2,1-b]thiazole-7-carboxamide] | + (+ >3 and <5)
13 | CCN(CC)CCCNC(=O)c1ccc2c(c1)sc1nc(-c3ccccc3C)cn12 [compound 123, N-(3-(diethylamino)propyl)-2-(o-tolyl)benzo[d]imidazo [2,1-b]thiazole-7-carboxamide] | ++ (++ ≥5 and <6)
14 | CCN(CC)CCCNC(=O)c1ccc2c(c1)sc1nc(-c3ccccc3Cl)cn12 [compound 124, 2-(2-ehlorophenyl)-N-(3-(diethylamino)propyl)benzo [d]imidazo[2,1-b]thiazole-7-carboxamide] | ++ (++ ≥5 and <6)
15 | CCN(CC)CCCNC(=O)c1ccc2c(c1)sc1nc(-c3ccc(C(=O)NC)cc3)cn12 [compound 125, N-(3-(diethylamino)propyl)-2-(4-(methylcarbamoyl)phenyl) benzo[d]imidazo[2,1-b]thiazole-7-carboxamide] | ++ (++ ≥5 and <6)
16 | CCc1ccc(-c2cn3c(n2)sc2cc(C(=O)NCCCN(CC)CC)ccc23)cc1 [compound 126, N-(3-(diethylamino)propyl)-2-(4-ethylphenyl)benzo[d] imidazo[2,1-b]thiazole-7-carboxamide] | ++ (++ ≥5 and <6)
17 | CCN1CCC[C@@H]1CNC(=O)c1ccc2c(c1)sc1nc(-c3cccc(OC)c3)cn12 [compound 127, (R)-N-((1-ethylpyrrolidin-2-yl)methyl)-2-(3-methoxyphenyl)benzo[d] imidazo[2,1-b]thiazole-7-carboxamide] | + (+ >3 and <5)
18 | CCN(CC)CCCNC(=O)c1ccc2c(c1)sc1nc(-c3ccccc3F)cn12 [compound 129, N-(3-(diethylamino)propyl)-2-(2-fluorophenyl)benzo[d] imidazo[2,1-b]thiazole-7-carboxamide] | ++ (++ ≥5 and <6)

Row | SMILES | Myc Efficacy (−LogEC50)
19 | CCN(CC)CCCNC(=O)c1ccc2c(c1)sc1nc(-c3cccc(F)c3)cn12 [compound 130, N-(3-(diethylamino)propyl)-2-(3-fluorophenyl)benzo[d] imidazo[2,1-b]thiazole-7-carboxamide] | ++ (++ ≥5 and <6)
20 | CCN(CC)CCCNC(=O)c1ccc2c(c1)sc1nc(-c3cccc(Cl)c3)cn12 [compound 131, 2-(3-chlorophenyl)-N-(3-(diethylamino)propyl)benzo [d]imidazo[2,1-b]thiazole-7-carboxamide] | ++ (++ ≥5 and <6)
21 | O=C(NCCCN1CCCCC1)c1ccc2c(c1)sc1nc(-c3ccc(Cl)cc3)cn12 [compound 132, 2-(4-chlorophenyl)-N-(3-(piperidin-1-yl)propyl) benzo[d]imidazo[2,1-b]thiazole-7-carboxamide] | ++ (++ ≥5 and <6)
22 | Cc1cccc(-c2cn3c(n2)sc2cc(C(=O)NCCCN4CCC(F)(F)CC4)ccc23)c1 [compound 133, N-(3-(4,4-difluoropiperidin-1-yl)propyl)-2-(m-tolyl)benzo[d]imidazo[2,1-b]thiazole-7-carboxamide] | ++ (++ ≥5 and <6)
23 | Cc1cccc(-c2cn3c(n2)sc2cc(C(=O)NCCCN4CCOCC4)ccc23)c1 [compound 134, N-(3-morpholinopropyl)-2-(m-tolyl)benzo[d]imidazo[2,1-b]thiazole-7-carboxamide] | + (+ >3 and <5)
24 | Cc1cccc(-c2cn3c(n2)sc2cc(C(=O)NCCCN4CCS(=O)(=O)CC4)ccc23)c1 [compound 135, N-(3-(1,1-dioxidothiomorpholino)propyl)-2-(m-tolyl)benzo[d]imidazo[2,1-b]thiazole-7-carboxamide] | + (+ >3 and <5)
25 | CCN(CC)CCCNC(=O)c1ccc2c(c1)sc1nc(-c3ccc(C(C)C)cc3)cn12 [compound 136, N-(3-(diethylamino)propyl)-2-(4-isopropylphenyl)benzo[d] imidazo[2,1-b]thiazole-7-carboxamide formate] | ++ (++ ≥5 and <6)
26 | Cc1cccc(-c2cn3c(n2)sc2cc(C(=O)NCCCN4CCC(F)CC4)ccc23)c1 [compound 137, N-(3-(4-fluoropiperidin-1-yl)propyl)-2-(m-tolyl)benzo[d]imidazo[2,1-b]thiazole-7-carboxamide] | ++ (++ ≥5 and <6)
27 | Cc1cccc(-c2cn3c(n2)sc2cc(C(=O)N[C@H]4C[C@@H](N5CCCCC5)C4)ccc23)c1 [compound 138, N-((1s,3s)-3-(piperidin-1-yl)cyclobutyl)-2-(m-tolyl)benzo[d]imidazo[2,1-b]thiazole-7-carboxamide] | ++ (++ ≥5 and <6)
28 | Cc1cccc(-c2cn3c(n2)sc2cc(C(=O)NCCCC4CCOCC4)ccc23)c1 [compound 139, N-(3-(tetrahydro-2H-pyran-4-yl)propyl)-2-(m-tolyl)benzo[d]imidazo[2,1-b]thiazole-7-carboxamide] | + (+ >3 and <5)
29 | Cc1cccc(-c2cn3c(n2)sc2cc(C(=O)NC4CCNCC4)ccc23)c1 [compound 140, N-(piperidin-4-yl)-2-(m-tolyl)benzo[d]imidazo[2,1-b]thiazole-7-carboxamide] | ++ (++ ≥5 and <6)
30 | Cc1cccc(-c2cn3c(n2)sc2cc(C(=O)N4CCNCC4)ccc23)c1 [compound 141, piperazin-1-yl(2-(m-tolyl)benzo[d]imidazo[2,1-b]thiazol-7-yl)methanone] | + (+ >3 and <5)
31 | CCN(CC)CCCNC(=O)c1ccc2c(c1)sc1nc(-c3ccc(OC)cc3)cn12 [compound 142, N-(3-(diethylamino)propyl)-2-(4-methoxyphenyl)benzo[d] imidazo[2,1-b]thiazole-7-carboxamide] | ++ (++ ≥5 and <6)
32 | CCN(CC)CCCNC(=O)c1ccc2c(c1)sc1nc(-c3cccc(C)c3F)cn12 [compound 143, N-(3-(diethylamino)propyl)-2-(2-fluoro-3-methylphenyl)benzo[d] imidazo[2,1-b]thiazole-7-carboxamide] | ++ (++ ≥5 and <6)
33 | CCN(CC)CCCNC(=O)c1ccc2c(c1)sc1nc(-c3cc(C)ccc3F)cn12 [compound 144, N-(3-(diethylamino)propyl)-2-(2-fluoro-5-methylphenyl)benzo[d] imidazo[2,1-b]thiazole-7-carboxamide] | + (+ >3 and <5)
34 | CCN(CC)CCCNC(=O)c1ccc2c(c1)sc1nc(-c3cccc(C#N)c3)cn12 [compound 145, 2-(3-cyanophenyl)-N-(3-(diethylamino)propyl)benzo [d]imidazo[2,1-b]thiazole-7-carboxamide] | ++ (++ ≥5 and <6)
35 | Cc1cccc(-c2cn3c(n2)sc2cc(C(=O)NCCCN4CCCC4)ccc23)c1 [compound 149, N-(3-(pyrrolidin-1-yl)propyl)-2-(m-tolyl)benzo[d]imidazo[2,1-b]thiazole-7-carboxamide] | ++ (++ ≥5 and <6)
36 | Cc1cccc(-c2cn3c(n2)sc2cc(C(=O)NCCCN4CCCC4=O)ccc23)c1 [compound 150, N-(3-(2-oxopyrrolidin-1-yl)propyl)-2-(m-tolyl)benzo[d]imidazo[2,1-b]thiazole-7-carboxamide] | + (+ >3 and <5)
